Data reported in the CheMixHub viscosity set.

Assay: xn = mol fraction of the nth substance listed

[Br-].[Na+] + O
viscosity [mPa·s]
Conditions | 100 kPa | 101.3 kPa
293.15 K, x1 = 0.0009 | – | 1.005
293.15 K, x1 = 0.0018 | – | 1.007
293.15 K, x1 = 0.00893 | – | 1.027
293.15 K, x1 = 0.0177 | – | 1.055
293.15 K, x1 = 0.03478 | – | 1.131
293.15 K, x1 = 0.05127 | – | 1.235
293.15 K, x1 = 0.06722 | – | 1.368
293.15 K, x1 = 0.09755 | – | 1.746
293.15 K, x1 = 0.126 | – | 2.317
298.15 K, x1 = 0.00088 | 0.8936 | –
298.15 K, x1 = 0.0009 | – | 0.8935
298.15 K, x1 = 0.0018 | – | 0.8956
298.15 K, x1 = 0.00351 | 0.895 | –
298.15 K, x1 = 0.00368 | 0.9007 | –
298.15 K, x1 = 0.00829 | 0.9176 | –
298.15 K, x1 = 0.00879 | 0.9099 | –
298.15 K, x1 = 0.00893 | – | 0.9162
298.15 K, x1 = 0.0101 | 0.9211 | –
298.15 K, x1 = 0.0146 | 0.9363 | –
298.15 K, x1 = 0.0177 | 0.9479 | 0.9443
298.15 K, x1 = 0.01952 | 0.9523 | –
298.15 K, x1 = 0.02624 | 0.9808 | –
298.15 K, x1 = 0.03478 | – | 1.016
298.15 K, x1 = 0.03489 | 1.022 | –
298.15 K, x1 = 0.04115 | 1.054 | –
298.15 K, x1 = 0.05064 | 1.112 | –
298.15 K, x1 = 0.05127 | – | 1.111
298.15 K, x1 = 0.05382 | 1.186 | –
298.15 K, x1 = 0.06722 | – | 1.231
298.15 K, x1 = 0.08817 | 1.474 | –
298.15 K, x1 = 0.09755 | – | 1.563
298.15 K, x1 = 0.126 | – | 2.052
303.15 K, x1 = 0.0009 | – | 0.8006
303.15 K, x1 = 0.0018 | – | 0.803
303.15 K, x1 = 0.00893 | – | 0.824
303.15 K, x1 = 0.0177 | – | 0.8517
303.15 K, x1 = 0.03478 | – | 0.9187
303.15 K, x1 = 0.05127 | – | 1.006
303.15 K, x1 = 0.06722 | – | 1.114
303.15 K, x1 = 0.09755 | – | 1.407
303.15 K, x1 = 0.126 | – | 1.833
303.74 K, x1 = 0.03489 | 0.9102 | –
303.75 K, x1 = 0.05064 | 0.9936 | –
303.86 K, x1 = 0.04115 | 0.9393 | –
306.42 K, x1 = 0.00829 | 0.7716 | –
308.15 K, x1 = 0.0009 | – | 0.7225
308.15 K, x1 = 0.0018 | – | 0.7249
308.15 K, x1 = 0.00893 | – | 0.7458
308.15 K, x1 = 0.0177 | – | 0.7722
308.15 K, x1 = 0.03478 | – | 0.8359
308.15 K, x1 = 0.05127 | – | 0.9163
308.15 K, x1 = 0.06722 | – | 1.014
308.15 K, x1 = 0.09755 | – | 1.277
308.15 K, x1 = 0.126 | – | 1.649
308.44 K, x1 = 0.01952 | 0.7804 | –
308.74 K, x1 = 0.00088 | 0.7144 | –
308.75 K, x1 = 0.02624 | 0.7947 | –
308.94 K, x1 = 0.0146 | 0.7534 | –
309.24 K, x1 = 0.0101 | 0.7342 | –
310.75 K, x1 = 0.05064 | 0.8742 | –
311.42 K, x1 = 0.04115 | 0.8205 | –
311.74 K, x1 = 0.00368 | 0.6805 | –
313.15 K, x1 = 0.0009 | – | 0.6562
313.15 K, x1 = 0.0018 | – | 0.6587
313.15 K, x1 = 0.00893 | – | 0.679
313.15 K, x1 = 0.0177 | – | 0.7046
313.15 K, x1 = 0.03478 | – | 0.7648
313.15 K, x1 = 0.05127 | – | 0.8392
313.15 K, x1 = 0.06722 | – | 0.929
313.15 K, x1 = 0.09755 | – | 1.165
313.15 K, x1 = 0.126 | – | 1.494
318.15 K, x1 = 0.0009 | – | 0.5992
318.15 K, x1 = 0.0018 | – | 0.6017
318.15 K, x1 = 0.00893 | – | 0.6213
318.15 K, x1 = 0.0177 | – | 0.646
318.15 K, x1 = 0.03478 | – | 0.7032
318.15 K, x1 = 0.05127 | – | 0.7724
318.15 K, x1 = 0.06722 | – | 0.855
318.15 K, x1 = 0.09755 | – | 1.069
318.15 K, x1 = 0.126 | – | 1.363
323.02 K, x1 = 0.00088 | 0.5507 | –
323.15 K, x1 = 0.0009 | – | 0.5496
323.15 K, x1 = 0.0018 | – | 0.5519
323.15 K, x1 = 0.00351 | 0.5505 | –
323.15 K, x1 = 0.00879 | 0.5603 | –
323.15 K, x1 = 0.00893 | – | 0.5708
323.15 K, x1 = 0.0177 | 0.5834 | 0.5948
323.15 K, x1 = 0.03478 | – | 0.6489
323.15 K, x1 = 0.05127 | – | 0.7136
323.15 K, x1 = 0.05382 | 0.7427 | –
323.15 K, x1 = 0.06722 | – | 0.7896
323.15 K, x1 = 0.08817 | 0.9292 | –
323.15 K, x1 = 0.09755 | – | 0.9845
323.15 K, x1 = 0.126 | – | 1.248
